According to patent publication US20060167068A1, “Method of treating self-injurious behavior with glutamate modulating agents” (priority 2005, published 2006):

Assay: Case reports: glutamate modulating agent added to medication of patients with borderline personality disorder and self-injurious behavior
Type: in vivo, human
Text: We describe two patients with borderline personality disorder and prominent cutting behaviors refractory to psychopharmacologic interventions.
Patient 1 was a person with a history of post-traumatic stress disorder and borderline personality disorder. […] They were previously treated with intensive psychotherapy, cognitive behavioral therapy, and pharmacotherapy. Medication management included treatment trials, either alone or in combination, of the following medications: CELEXA (citraloprom HBr), PROZAC (fluoxetine HCl), REMERON (mirtazapine), ZYPREXA (olanzapine), KLONOPIN (clonazepam), LAMICTAL (lamotrigine), RISPERDAL (risperidone), Abilify (aripiprazole), EFFEXOR (venlafaxine HCl), XANAX (alprazolam), WELLBUTRIN (bubroprion HCl), and ATIVAN (lorazepam). Medications provided little relief and their cutting behaviors continued on a daily to weekly basis. Riluzole, a glutamate modulating agent, was added to their medication regimen which consisted of LEXAPRO (escitalopram) 20 mg a day and KLONOPIN 1 mg at bedtime. Riluzole was dosed at 50 mg twice a day. […] This attenuation in their self-injurious behaviors occurred between week 2 and 3 of treatment with riluzole.
Despite the beneficial effects of riluzole with regard to the cutting/self-injurious behaviors (as well as cravings to cut), Patient 1 requested to stop the riluzole secondary to the sedation. Within 1 week of stopping the riluzole, their desire and cravings to cut returned. They were then treated with N-Acetyl Cysteine (NAC), another agent thought to modulate glutamatergic function.
Patient 2 was a person with a long history of borderline personality disorder, major depression, obsessive-compulsive disorder and generalized anxiety disorder. […] These self-injurious behaviors and the cravings to cut worsened under times of stress. They were previously treated with intensive psychotherapy, cognitive behavioral therapy, and pharmacotherapy. Medication management included treatment trials, either alone or in combination, of the following medications: EFFEXOR, ZOLOFT (sertaline HCl), TOPAMAX (topirimate), ATIVAN (lorazepam), trazodone, ABILIFY AND NEURONTIN (gabapentin). Riluzole, a glutamate modulating agent, was added to their medication regimen which consisted of ZOLOFT 200 mg each day, RISPERDAL (risperidone) 2 mg at bedtime, KLONOPIN 1 mg three times per day and PROVIGIL (modafinil) 200 mg a day. Riluzole was dosed at 50 mg twice a day. […] Similar to the first case, the cessation in self-injurious behaviors occurred between week 2 and 3 of treatment with riluzole.

[1] = Patient 1, riluzole 50 mg twice a day

| SMILES | time of treatment until desire to cut remitted (Patient 1, NAC after stopping riluzole) | period without any self-injurious behaviors (Patient 1, on NAC) | self-injurious cravings (self-report) (Patient 1, on NAC, desire to cut not completely eradicated as while on riluzole) | time after stopping treatment until desire and cravings to cut returned (Patient 1, after stopping riluzole) | adverse effect while on treatment [1] | time on treatment without a single episode or desire to harm themself [1] | cravings to cut / self-injurious behaviors (patient report) (Patient 1, riluzole 50 mg twice a day added to LEXAPRO 20 mg a day and KLONOPIN 1 mg at bedtime) | period without any self-injurious behaviors (Patient 2, riluzole 50 mg twice a day) | desire to engage in self-injurious behaviors (patient report) (Patient 2, riluzole 50 mg twice a day added to ZOLOFT 200 mg, RISPERDAL 2 mg, KLONOPIN 1 mg three times per day, PROVIGIL 200 mg) | self-injurious behavior (both cases (two patients with borderline personality disorder and cutting behaviors refractory to psychopharmacologic interventions), after initiating riluzole) |
| --- | --- | --- | --- | --- | --- | --- | --- | --- | --- | --- |
| CC(=O)N[C@@H](CS)C(=O)O [NAC, N-Acetyl Cysteine] | ≤ 2 weeks | over three months | significantly attenuated | – | – | – | – | – | – | – |
| Nc1nc2ccc(OC(F)(F)F)cc2s1 [riluzole, Riluzole] | – | – | – | ≤ 1 week | significant sedation | approximately eight weeks | complete cessation of cravings to cut | over six months | complete cessation | significantly decreased |
